Assay results from US6409508B1, “Use of ozone for the treatment of dental caries” (Natural White, priority 1998, dated 2002).

What was measured:
Assay type in all cases: cell-based
[1] = system: Streptococcus sobrinus; TH 21; test: Ozone on S. sobrinus on saliva coated glass beads; conditions: 10 seconds of ozone applied to glass beads
Source text: (§1) The aims of these studies were to evaluate the efficiency of ozone on primary root caries and associated micro-organisms (Streptococcus sobrinus; TH 21, Streptococcus mutans; NCTC 10449). In study 1, 40 soft primary root carious lesions (PRCLs) from freshly extracted teeth were used and randomly divided into two groups to test the exposure to ozone for either 10 or 20 seconds. There was a significant (p<0.001) difference (Mean±SE) between the control samples for. either 10 seconds (log10 5.91±0.15) or 20 seconds (log10 6.18±0.21) and ozone treated samples for either 10 seconds (log10 3.57±0.37) or 20 seconds (log10 3.77±0.42). In study 2, 40 sterile saliva coated glass beads were put into bijoux bottles with 3 mls of Todd Hewitt broth for control and test groups. S. sobrinus and S. mutans were inoculated and incubated anaerobically overnight. Each glass bead was washed with 2 mls of PBS. Immediately, 10 seconds of ozone was applied to the glass beads in the test groups. Subsequently, each glass bead in the test and control groups was placed in 3 mls of Todd Hewitt Broth with six more sterile glass beads and were vortexed for 30 seconds. After decimal dilutions, 100 ml aliquots were spread on blood agar plates supplemented with 5% (V/V) horse blood and placed in an anaerobic chamber at 37° C. for two days. The number of each colony type was counted and calculated. […]

[2] = system: Streptococcus mutans; NCTC 10449; test: Ozone on S. mutans on saliva coated glass beads; conditions: 10 seconds of ozone applied to glass beads
Source text: as §1

[3] = system: micro-organisms in primary root carious lesions (PRCL); test: Ozone effect on microflora from primary root caries ex-vivo; conditions: for Mean ± SE of total cfu (Log10): after 10 seconds of ozone treatment
Source text: Primary root carious lesions (PRCL) are a major clinical problem. The aim of this study was to establish if ozone could achieve effective microbial killing in PRCL. An ozone producing generator (Purezone Ltd., Ipswich, U.K.) was used in this ex-vivo study assessing the use of ozone on PRCL. In this study, soft PRCL requiring restoration were used as these are the most severe type of lesion found in humans. 20 freshly extracted teeth with PRCL requiring restoration were used. After plaque removal using a hand held standard fine nylon fibre sterile toothbrush with sterile water as a lubricant to cleanse the surface, each tooth was then isolated using sterile cotton wool rolls and dried using a dry sterile cotton wool roll. […] Each sample was weighed and immediately placed in 1 ml of Fastidious Anaerobe Broth (FAB). To each 1 ml of FAB containing a biopsy of carious or ozone treated carious dentine, sterile glass beads were added. They were vortexed for 30 seconds to facilitate the extraction of any micro-organisms from the carious dentine and disperse any aggregates. After decimal dilution with FAB, […] of these was spread on Fastidious Anaerobe Agar (LabM. Bury, Lancs., U.K.) supplemented with 5% (V/V) horse blood in an anaerobic chamber at 37° C. for four days. The mean±SE number of each colony type was counted and calculated.
The procedure of Example 2 was repeated except that ozonised water was applied to the lesion for 20 seconds.
as §1, with “After decimal dilutions, 100 ml aliquots were spread on blood agar plates supplemented with 5% (V/V) horse blood and placed in an anaerobic chamber at 37° C. for two days.” left out

## O=[O+][O-] [Ozone, ozone]
[1]
  colony count (log10, Mean±SE): 1.09±0.36 log10
[2]
  colony count (log, Mean±SE): 1.01±0.27 log
[3]; 10 seconds of ozone treatment
  percentage of micro-organisms killed: more than 99%
[3]; soft PRCL, freshly extracted teeth
  Mean ± SE of total cfu (Log10): 3.57 ± 0.37 Log10
[3]; soft PRCL, freshly extracted teeth, listed as ozone
  Mean ± SE of total cfu (Log10): 3.57±0.37 Log10
[3]; after 20 seconds of ozone (ozonised water) treatment, soft PRCL, freshly extracted teeth
  Mean ± SE of total cfu (log10): 3.77±0.42 log10
